From patent US20250034216A1, “STEREOSELECTIVE COVALENT LIGANDS FOR ONCOGENIC AND IMMUNOLOGICAL PROTEINS” (The Scripps Research Institute, priority 2021, published 2025) come the findings set out here.

One assay concerns the target T1, CUL5_C112 (Homo sapiens, UniProt Q93034).
T1 construct: endogenous in cells; host or cells: 22Rv1
T1 sequence (Q93034 1-780): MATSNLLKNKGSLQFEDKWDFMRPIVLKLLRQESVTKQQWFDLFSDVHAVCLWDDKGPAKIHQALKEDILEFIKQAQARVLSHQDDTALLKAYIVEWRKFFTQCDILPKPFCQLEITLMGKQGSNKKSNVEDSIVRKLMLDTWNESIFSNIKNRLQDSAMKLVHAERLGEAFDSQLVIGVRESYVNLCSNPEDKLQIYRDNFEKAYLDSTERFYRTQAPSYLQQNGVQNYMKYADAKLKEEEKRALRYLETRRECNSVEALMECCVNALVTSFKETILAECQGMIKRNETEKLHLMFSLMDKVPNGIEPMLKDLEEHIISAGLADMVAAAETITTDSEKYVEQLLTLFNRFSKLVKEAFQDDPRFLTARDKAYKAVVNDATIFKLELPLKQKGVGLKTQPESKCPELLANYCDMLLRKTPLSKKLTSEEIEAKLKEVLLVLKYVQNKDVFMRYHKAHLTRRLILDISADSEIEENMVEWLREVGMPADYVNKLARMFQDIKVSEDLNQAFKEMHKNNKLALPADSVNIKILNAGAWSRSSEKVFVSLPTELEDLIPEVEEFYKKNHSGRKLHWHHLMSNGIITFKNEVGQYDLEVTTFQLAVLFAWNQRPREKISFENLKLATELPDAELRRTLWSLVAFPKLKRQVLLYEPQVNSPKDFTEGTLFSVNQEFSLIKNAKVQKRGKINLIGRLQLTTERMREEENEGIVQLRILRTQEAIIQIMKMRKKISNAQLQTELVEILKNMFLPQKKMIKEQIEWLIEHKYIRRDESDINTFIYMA
Briefly: IA-DTB cysteine engagement. Particulars: 22Rv1 cells, 20 μM probe, 1 h, relative to DMSO. It is filed as binding. Put shortly: (§1)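 First, cells are exposed to electrophilic probes in situ. Next, lysates are labeled with IA-DTB (1 h, ambient temperature), reduced, alkylated and trypsin-digested. Then, IA-DTB peptides are enriched on streptavidin, TMT-labeled and analyzed, with ratios taken against DMSO channels.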

In the next assay the target is T2, SYNE2_C2994 (Homo sapiens, UniProt Q8WXH0).
T2 construct: endogenous in cells; host or cells: 22Rv1
Briefly: IA-DTB cysteine engagement. It is filed as binding. The following applies: 22Rv1 cells, 20 μM probe, 1 h, relative to DMSO. Put shortly: as §1

Structures are written as SMILES.

Regarding `C=CC(=O)N1C[C@H](c2ccc(Br)cc2)[C@H]1C(=O)Nc1cccc2cccnc12` [MY-3A, (2S,3S)-1-acryloyl-3-(4-bromophenyl)-N-(quinolin-8-yl)azetidine-2-carboxamide], the “% engagement CUL5_C112” value on CUL5_C112 is −14.75%. The “% engagement SYNE2_C2994” value on SYNE2_C2994 amounted to 11.25%.
`C=CC(=O)N1C[C@@H](c2ccc(Br)cc2)[C@H]1C(=O)Nc1cccc2cccnc12` [MY-1A, (2S,3R)-1-acryloyl-3-(4-bromophenyl)-N-(quinolin-8-yl)azetidine-2-carboxamide]: the “% engagement CUL5_C112” value on CUL5_C112 was determined as 95.5%. Besides, at SYNE2_C2994, the “% engagement SYNE2_C2994” value came to 29.5%.
In the same order, the values of `C=CC(=O)N1C[C@H](c2ccc(Br)cc2)[C@@H]1C(=O)Nc1cccc2cccnc12` [MY-1B, (2R,3S)-1-acryloyl-3-(4-bromophenyl)-N-(quinolin-8-yl)azetidine-2-carboxamide] are 11% and 75.75%.
Taken in the same sequence, the figures for `C=CC(=O)N1C[C@H](c2ccc(Br)cc2)[C@H]1C(=O)Nc1cccc2cccnc12` [MY-3B, (2S,3S)-1-acryloyl-3-(4-bromophenyl)-N-(quinolin-8-yl)azetidine-2-carboxamide] were −20% and 37.5%.
